These results are taken from ChEMBL document CHEMBL1148658, “New HIV-1 reverse transcriptase inhibitors based on a tricyclic benzothiophene scaffold: synthesis, resolution, and inhibitory activity” (Bioorg Med Chem Lett, 2006).

In the first experiment the target is Human immunodeficiency virus type 1 reverse transcriptase (Human immunodeficiency virus 1, UniProt Q72547). Description: Inhibition of wild type HIV1 reverse transcriptase in 293T cells. It is filed as cell-based.
The IC50 is the midpoint of a concentration-inhibition curve. A high value points to a need for much substance. In turn, `COC(=O)C1=C(N2CCCC2)C2c3ccccc3SC12C(=O)OC` (configuration not stated) had an IC50 of 1.2 µM. On the same count and under the same terms, with `CCOC(=O)C1=C(N2CCCC2)[C@H]2c3ccccc3S[C@@]12C(=O)OCC` the figure was greater than 20 µM; with `COC(=O)C1=C(N2CCCC2)[C@H]2c3ccccc3S[C@@]12C(=O)OC`, 0.8 µM.

`COC(=O)C1=C(N2CCC[C@@H]2C)[C@H]2c3ccccc3S[C@@]12C(=O)OC` gave an IC50 of 2.3 µM. With `COC(=O)C1=C(N2CCC[C@@H]2C)[C@@H]2c3ccccc3S[C@]12C(=O)OC`, the IC50 was greater than 25 µM. On the same count and under the same terms, under `COC[C@H]1CCCN1C1=C(C(=O)OC)[C@@]2(C(=O)OC)Sc3ccccc3[C@@H]12` stands greater than 50 µM; under `COC[C@H]1CCCN1C1=C(C(=O)OC)C2(C(=O)OC)Sc3ccccc3C12` (some centres not stated), 48 µM; under `COC(=O)C1=C(N2CCC2)C2c3ccccc3SC12C(=O)OC` (configuration not stated), greater than 10 µM. Turning to `COC(=O)C1=C(N2CCCCC2)C2c3ccccc3SC12C(=O)OC` (configuration not stated), 8.9 µM corresponded to half-maximal inhibition (IC50).

As for `COC(=O)C1=C(N2CC=CC2)C2c3ccccc3SC12C(=O)OC` (configuration not stated), half-maximal inhibition (IC50) was put at 5.1 µM. `COC(=O)C1=C(N2CCCC2)[C@@H]2c3ccccc3S[C@]12C(=O)OC` had an IC50 greater than 20 µM. On the same count and under the same terms, with `COC[C@H]1CCCN1C1=C(C(=O)OC)[C@]2(C(=O)OC)Sc3ccccc3[C@H]12` the figure was 38 µM; with `COC(=O)C1=C(N2CCCCC2)[C@@H]2c3ccccc3S[C@]12C(=O)OC`, greater than 40 µM; with `COC(=O)C1=C(N2CCCCC2)[C@H]2c3ccccc3S[C@@]12C(=O)OC`, 7.7 µM.

`COC(=O)C1=C(N2CCC[C@H]2C)[C@H]2c3ccccc3S[C@@]12C(=O)OC`: the IC50 amounted to 0.5 µM.

For `CCOC(=O)C1=C(N2CCCC2)[C@@H]2c3ccccc3S[C@]12C(=O)OCC`, the IC50 was greater than 20 µM.

In the case of `CC(C)(C)OC(=O)C1=C(N2CCCC2)C2c3ccccc3SC12C(=O)OC(C)(C)C` (configuration not stated), the IC50 was greater than 20 µM. In turn, `CCOC(=O)C1=C(N2CCCC2)C2c3ccccc3SC12C(=O)OCC` (configuration not stated) showed an IC50 greater than 20 µM. `COC(=O)C1=C(N2CCC[C@H]2C)[C@@H]2c3ccccc3S[C@]12C(=O)OC` had an IC50 of 11 µM.

Another experiment deals with Human immunodeficiency virus type 1 reverse transcriptase (Human immunodeficiency virus 1, UniProt Q72547, Y181C). Description: Inhibition of HIV1 reverse transcriptase Y181C mutant in 293T cells. The experiment is classed as cell-based.
In turn, `COC(=O)C1=C(N2CCCC2)C2c3ccccc3SC12C(=O)OC` (configuration not stated) yielded an IC50 greater than 30 µM.

The target of another experiment is Human immunodeficiency virus type 1 reverse transcriptase (Human immunodeficiency virus 1, UniProt Q72547, Y188C). Kind of experiment: Inhibition of HIV1 reverse transcriptase Y188C mutant in 293T cells. The experiment is classed as cell-based.
`COC(=O)C1=C(N2CCCC2)C2c3ccccc3SC12C(=O)OC` (configuration not stated) returned an IC50 greater than 30 µM.

The target of another experiment is Human immunodeficiency virus type 1 reverse transcriptase (Human immunodeficiency virus 1, UniProt Q72547, K103N). Kind of experiment: Inhibition of HIV1 reverse transcriptase K103N mutant in 293T cells. The experiment is classed as cell-based.
Turning to `COC(=O)C1=C(N2CCCC2)C2c3ccccc3SC12C(=O)OC` (configuration not stated), the concentration for half-maximal inhibition (IC50) is greater than 30 µM.
